Assay [1] deals with retinoic acid response element (RARE). The experiment in a line: X-Gal RA based reporter assay (genomic activity). In kind it is cell-based. Conditions: for Genomic Activity (X-Gal RA Based Reporter Assay) Efficacy (Emax) / EC50: Sil-15 reporter cells, overnight incubation; for EC50: read-out: Genomic Activity (X-Gal RA Based Reporter Assay) Potency (EC50); for Genomic activity and potency compared to retinoic acid (ATRA): X-Gal assay, versus ATRA. The method, then: The genomic activity of synthetic retinoids was evaluated by determining their efficiency of inducing transcription using the X-Gal Assay. The X-Gal Assay utilizes Sil-15 reporter cells in which the transcription of the LacZ gene is under control of a promoter linked to a retinoic acid response element (RARE). After treatment of the reporter cells with retinoids, the ability of the compounds to induce transcription can be attained by monitoring and quantifying the activity of β-galactosidase produced by the reporter cells.
Sil-15 cells were plated at 100,000 cells per well in 96-well plates coated in 0.1% gelatin. The following day, serial dilutions of retinoid ligands, prepared in Dulbecco's Modified Eagle's Medium (DMEM) containing 10% foetal calf serum (FCS) were added at concentrations from 10^−6 M to 10^−14 M and the plates were incubated overnight. All concentrations for the ATRA standard curve and the other retinoid ligands were tested in triplicate.
The next day, the assay plates were washed twice with phosphate buffered saline (PBS), fixed with 100 μl per well of 1% glutaraldehyde and 1 mM MgCl2 in PBS for 15 minutes and washed twice with PBS. β-galactosidase activity was detected by the addition of 100 μl of freshly-prepared 0.2% X-Gal in 1 mM MgCl2, 3.3 mM potassium ferricyanide and 3.3 mM potassium ferrocyanide in PBS per well. Plates were incubated for 6 hours at 37° C. in 5% CO2 and colour change was detected by reading the plates at 650 nm on an Emax Precision Microplate Reader (Molecular Devices).
For orientation: A reporter such as luciferase makes a cellular process visible.

Assay [2] deals with rat mixed primary neuronal/glial cultures. Nature of the assay: Regulation of Alzheimer's disease related genes (qPCR). It is filed as cell-based. Particulars: 10 nM retinoid 24 hours after 1 μg/ml lipopolysaccharide 6 hours. The method, then:
To examine the influence retinoids may have on the expression of genes involved in Alzheimer's disease, the expression of a group of Alzheimer's-related genes in rat mixed primary neuronal/glial cultures was assessed following retinoid treatment.
Approximately 300,000 rat neuronal/glial cells were treated first with 1 μg/ml lipopolysaccharide (Sigma-Aldrich) for 6 hours to induce inflammation. Following the induction of inflammation, cells were treated with 10 nM retinoids for 24 hours. […] Following treatment, RNA was extracted from the treated cells for qPCR analysis.
Total RNA was extracted using a Qiagen RNeasy mini kit (CAT # 74104, Qiagen) according to the manufacturer's protocol. Briefly, cell and brain tissue samples were homogenized in 350 μl and 1200 μl of RLT buffer mixed with β-ME (1 ml buffer: 10 μl β-ME ratio) respectively. Then, samples were centrifuged for 3 min at 13,000 rpm. The supernatant was first mixed with 70% ethanol at a 1:1 volume ratio (CAT # E7023, Sigma-Aldrich) before transferring it to a spin column placed in a collection tube. The samples were centrifuged for 1 min at 10,000 rpm to bind RNA to the membrane of the spin column.
For the on-column DNase digestion, the samples in the columns were washed with 350 μl RW1 buffer and centrifuged at 10,000 rpm for 1 min. Then, 80 μl of the DNase mixture (10 μl DNase enzyme with 70 μl RDD buffer; CAT # 79254, Qiagen) was added above each sample. Samples were incubated at room temperature for 15 min before adding 350 μl RW1 buffer. Samples were centrifuged at 10,000 rpm for 1 min.
Afterwards, 500 μl of RPE buffer (mixed with 100% ethanol at 1:4 ratio) was added above the samples. Samples were centrifuged for 1 min at 10,000 rpm (the step was repeated 2 times). The spin columns were centrifuged again at 13,000 rpm for 1 min to dry the membranes. The spin columns were removed from the collection tubes and placed inside another 1.5 ml RNase free collection tubes. The RNA was eluted by adding 30 μl of RNase free water directly to the spin column membrane. The samples were incubated 5 min at room temperature before spinning them for 1 min at 10,000 rpm.
RNA concentration was measured using a NanoDrop™ 2000c spectrophotometer (Thermo Fisher Scientific). The instrument was calibrated using the RNase free water used to elute the RNA as a blank and 2 μl was used of each RNA sample. RNA samples were stored in a −70° C. freezer to minimize RNA degradation.
qPCR reactions were performed using PerfeCTa SYBR Green SuperMix (CAT # 733-1246, VWR). 10 μl of reaction mix was added to each well of a 384-well plate (CAT # 04729749001, Roche) in triplicate. Each reaction contained 2 μl of 4 times diluted cDNA template, 5 μl 2×SYBR green mix and 250 nM primers.
Primers were designed using Primer-BLAST with melting temperatures of about 60° C. Before using them in qPCR, the primers were checked for specificity by PCR and the PCR products were sent for sequencing.
Standard curves (made using 5-fold dilutions of the stock cDNA) and blank controls were run for all sets of primers tested in qPCR. The plates were then sealed and centrifuged briefly to ensure all the reagents were at the base of the wells. The plates were run on a Roche LightCycler 480 that was programmed to hold the plate at 95° C. for 5 min. The qPCR then ran for 45 cycles of 95° C. for 15 seconds (s), 60° C. for 15 s and 72° C. for 15 s. Afterwards, the melting curve was obtained by running the plate at 95° C. for 5 s followed by 58° C. for 1 min.
Results were analysed using the delta delta CT method within the LightCycler 480 1.5 software. The expression of genes of interest was normalized to the appropriate reference gene according to each experiment.

Here are results for three compounds from patent US12344587B2, “Synthetic retinoids for use in RAR activation” (UNIVERSITY OF DURHAM, priority 2019, dated 2025).

Molecules are shown by their SMILES.

For the compound `CC1(C)CCC(C)(C)c2cc(C#Cc3ccc(C(=O)O)nc3)ccc21` [DC528, 5-[2-(5,5,8,8-tetramethyl-5,6,7,8-tetrahydronaphthalen-2-yl)ethynyl]pyridine-2-carboxylic acid], in assay [1], the “Genomic Activity (X-Gal RA Based Reporter Assay) Efficacy (Emax)” value (from here on “Genomic Activity … (Emax)”) is recorded as 206.5; the EC50 (as a rule, the concentration needed to bring the measured effect to its halfway point) was found to be 0.146 nM; the “Genomic activity and potency compared to retinoic acid (ATRA)” value is “increased genomic activity and potency”. Besides, in assay [2], the “Expression of inflammation genes (Ccl5, TNFα and Nos2)” value (“Expression of inflammation genes” below) is given as “downregulated”; the “Expression of neuroprotection genes (Abca1, Abcg1, Igf1 and Igf2)” value (“Expression of neuroprotection genes” below) was “upregulated”; the “Expression of non-amyloidogenic pathway genes (Nep, Ide and Adam10)” value is on record as “upregulated”.

As to `CC1(C)CCC(C)(C)c2cc(C#Cc3ccc(C(=O)O)cc3F)ccc21` [DC526, 3-Fluoro-4-[2-(5,5,8,8-tetramethyl-5,6,7,8-tetrahydronaphthalen-2-yl)ethynyl]benzoic acid], in assay [1], the “Genomic Activity … (Emax)” value was found to be 149.1; the half-maximal effective concentration (EC50) amounted to 0.0581 nM; the “Genomic activity and potency compared to retinoic acid (ATRA)” value was “increased genomic activity and potency”. In assay [2], the “Expression of inflammation genes” value is recorded as “downregulated”; the “Expression of neuroprotection genes” value is given as “upregulated”; the “Expression of non-amyloidogenic pathway genes (Nep, Ide and Adam10)” value is listed as “upregulated”.

As to `CC1(C)CCC(C)(C)c2nc(C#Cc3ccc(C(=O)O)cc3)cnc21` [DC645, 4-[2-(5,5,8,8-Tetramethyl-5,6,7,8-tetrahydroquinoxalin-2-yl)ethynyl]benzoic acid], in assay [1], the “Genomic Activity … (Emax)” value is listed as 185.9; the EC50 is 0.0697 nM; the “Genomic activity and potency compared to retinoic acid (ATRA)” value is “increased genomic activity and potency”. For the same compound, in assay [2], the “Expression of inflammation genes” value is “downregulated”; the “Expression of neuroprotection genes” value was “upregulated”; the “Expression of non-amyloidogenic pathway genes (Nep, Ide and Adam10)” value is given as “upregulated”.
